# Values of other authors as cited in patent publication US6395294B1, “Method of visualization of the vitreous during vitrectomy” (priority 2000, dated 2002).
# Read-outs that look alike come from different tables or passages of the source.
# Tests used:
# [1] = intravitreal injections
# [2] = intravenous
# [3] = tested on: blood retinal barrier; settings: intravitreal, experimental
# [4] = primate eyes
# [5] = human eyes
# [6] = intravitreal, experimental
# [7] = rabbit eyes
structure (smiles),measurement,setting,value
C[C@@H]1C[C@H]2[C@@H]3CCC4=CC(=O)C=C[C@]4(C)[C@@]3(F)[C@@H](O)C[C@]2(C)[C@@]1(O)C(=O)COP(=O)(O)O [dexamethasone sodium phosphate],retinal toxicity,dose of 2 mg,did not show retinal toxicity
C[C@]12CCC(=O)C=C1CC[C@@H]1[C@@H]2[C@@H](O)C[C@@]2(C)[C@H]1CC[C@]2(O)C(=O)CO [hydrocortisone],aqueous formation rate and outflow facility compared with saline injection,[1],no difference
same,intraocular pressure,"[1]; both drug and saline groups, because of a decrease in outflow facility",increased intraocular pressure
"C[C@H]1C[C@@H]2[C@H]([C@@H](O)C[C@@]3(C)[C@H]2CC[C@]3(O)C(=O)COC(=O)CCC(=O)[O-])[C@@]2(C)C=CC(=O)C=C12.[Na+] [solumedrol, methylprednisolone sodium succinate]",effect on diabetic eyes with rubeosis iridis,[2],quiets diabetic eyes with rubeosis iridis
"CC1(C)O[C@@H]2C[C@H]3[C@@H]4CCC5=CC(=O)C=C[C@]5(C)[C@@]4(F)[C@@H](O)C[C@]3(C)[C@]2(C(=O)CO)O1 [triamcinolone, triamcinolone acetonide]",retinal toxicity,"vitrectomized and nonvitrectomized eyes, dosage of 2-4 mg",no retinal toxicity
same,breakdown of the blood retinal barrier,[3],reduce the breakdown of the blood retinal barrier
same,tolerance in the eye,[4],well tolerated
same,tolerance in the eye,[5],well tolerated
same,angiogenesis,[6],inhibit angiogenesis
same,incidence of proliferative vitreoretinopathy and subsequent retinal detachment,[6],reduce the incidence of proliferative vitreoretinopathy and subsequent retinal detachment
same,preretinal and optic disc neovascularization,[6],inhibit preretinal and optic disc neovascularization
same,tolerance in the eye,[7],well tolerated
